Experimental data taken from the supplement of paper PMC12613149.

Tests used:
[1] = reversed-phase LC retention time (C18, 15 min MeOH gradient); higher = more hydrophobic / later elution
[2] = collision cross section (TIMS, N2 drift gas) of the primary ion; higher = larger gas-phase ion size
[3] = ionization mode: ESI-, ion species: [M-H]-
[4] = ionization mode: ESI+, ion species: [M]+
[5] = ionization mode: ESI+, ion species: [M+H]+

reversed-phase LC retention time [1, 3] [min]	collision cross section [2, 3] [Å²]	reversed-phase LC retention time [1, 5] [min]	collision cross section [2, 5] [Å²]	Structure (SMILES)	reversed-phase LC retention time [1, 4] [min]	collision cross section [2, 4] [Å²]
18.9	178.05	–	–	BrC1CCC(Br)C(Br)CCC(Br)C(Br)CCC1Br (configuration not stated) [Hexabromocyclododecane (two peaks)]	–	–
–	–	–	–	CCCCCCCCCCCCCCCC[n+]1ccccc1 [Hexadecylpyridinium]	17.5	197.5
–	–	–	–	CCCCCCCCCCCCCCCC[N+](C)(C)C [Hexadecyltrimethylammonium]	17.4	196.39
4.93	152.66	–	–	NS(=O)(=O)c1cc2c(cc1Cl)NCNS2(=O)=O [Hydrochlorothiazide]	–	–
13.7	198.1	–	–	CC(=O)OCC(=O)[C@@]1(O)CC[C@H]2[C@@H]3CCC4=CC(=O)CC[C@]4(C)[C@H]3[C@@H](O)C[C@@]21C [Hydrocortisonacetate]	–	–
–	–	12.4	189.25	C[C@]12CCC(=O)C=C1CC[C@@H]1[C@@H]2[C@@H](O)C[C@@]2(C)[C@H]1CC[C@]2(O)C(=O)CO [Hydrocortisone]	–	–
7.66	201.31	–	–	O=c1c(O[C@@H]2O[C@H](CO)[C@H](O)[C@H](O)[C@H]2O)c(-c2ccc(O)c(O)c2)oc2cc(O)cc(O)c12 [Hyperin]	–	–
–	–	13.6	152.87	CCC(C)OC(=O)N1CCCCC1CCO (configuration not stated) [Icaridin]	–	–
–	–	12.7	167.87	C=CCOC(Cn1ccnc1)c1ccc(Cl)cc1Cl (configuration not stated) [Imazalil]	–	–
9.34	122.39	–	–	O=Cc1c[nH]c2ccccc12 [Indole-3-carboxyaldehyde]	–	–
13.8	188.5	15.3	182.58	COc1ccc2c(c1)c(CC(=O)O)c(C)n2C(=O)c1ccc(Cl)cc1 [Indomethacin]	–	–
5.47	220.12	5.4	226.32	CC(=O)N(CC(O)CO)c1c(I)c(C(=O)NCC(O)CO)c(I)c(C(=O)NCC(O)CO)c1I (configuration not stated) [Iohexol]	–	–
5.58	210.1	5.52	216.41	CN(C(=O)CO)c1c(I)c(C(=O)NCC(O)CO)c(I)c(C(=O)NCC(O)CO)c1I (configuration not stated) [Iomeprol]	–	–
3.71	206.33	5.52	216.64	C[C@H](O)C(=O)Nc1c(I)c(C(=O)NC(CO)CO)c(I)c(C(=O)NC(CO)CO)c1I [Iopamidol]	–	–
6.74	212.29	6.66	215.51	COCC(=O)Nc1c(I)c(C(=O)NCC(O)CO)c(I)c(C(=O)N(C)CC(O)CO)c1I (configuration not stated) [Iopromide]	–	–
–	–	11.3	196.72	CCC(Cc1ccccc1)(C(=O)c1ccc(N2CCOCC2)cc1)N(C)C (configuration not stated) [Irgacure 369]	–	–
–	–	14.4	163.17	CSc1nc(NC2CC2)nc(NC(C)(C)C)n1 [Irgarol]	–	–
–	–	17.1	128.32	CC(C)C(=O)c1ccccc1 [Isobutyrophenone]	–	–

Structure (SMILES)	reversed-phase LC retention time [1, 3] [min]	collision cross section [2, 3] [Å²]	reversed-phase LC retention time [1, 5] [min]	collision cross section [2, 5] [Å²]	reversed-phase LC retention time [1, 4] [min]	collision cross section [2, 4] [Å²]
O=P1(NCCCl)OCCCN1CCCl (configuration not stated) [Ifosfamide]	–	–	10.2	148.36	–	–
CC(C)C1(C)N=C(c2ncccc2C(=O)O)NC1=O (configuration not stated) [Imazapyr]	–	–	8.78	156.96	–	–
NC1=NCCN1Cc1ccc(Cl)nc1 [Imidacloprid-guanidine]	–	–	6.21	148.89	–	–
O=C1NCCN1Cc1ccc(Cl)nc1 [Imidacloprid-urea]	–	–	8.55	143.26	–	–
O=[N+]([O-])/N=C1\NCCN1Cc1ccc(Cl)nc1 [Imidacloprid]	8.7	157.08	8.67	155.98	–	–
COC(=O)N(C(=O)N1CO[C@@]2(C(=O)OC)Cc3cc(Cl)ccc3C2=N1)c1ccc(OC(F)(F)F)cc1 [Indoxacarb]	–	–	16.2	206.73	–	–
CC(C)C1CCC(Cc2ccc(Cl)cc2)C1(O)Cn1cncn1 (configuration not stated) [Ipconazole]	–	–	16.4	174.42	–	–
